The target of the first assay is T1, human 5-hydroxytryptamine-2C (h5-HT2C) receptor (Homo sapiens, UniProt P28335).
T1 construct: expressed in transfected cells; host or cells: CHO (Chinese Hamster Ovary) cells; membranes
T1 sequence (P28335 33-458): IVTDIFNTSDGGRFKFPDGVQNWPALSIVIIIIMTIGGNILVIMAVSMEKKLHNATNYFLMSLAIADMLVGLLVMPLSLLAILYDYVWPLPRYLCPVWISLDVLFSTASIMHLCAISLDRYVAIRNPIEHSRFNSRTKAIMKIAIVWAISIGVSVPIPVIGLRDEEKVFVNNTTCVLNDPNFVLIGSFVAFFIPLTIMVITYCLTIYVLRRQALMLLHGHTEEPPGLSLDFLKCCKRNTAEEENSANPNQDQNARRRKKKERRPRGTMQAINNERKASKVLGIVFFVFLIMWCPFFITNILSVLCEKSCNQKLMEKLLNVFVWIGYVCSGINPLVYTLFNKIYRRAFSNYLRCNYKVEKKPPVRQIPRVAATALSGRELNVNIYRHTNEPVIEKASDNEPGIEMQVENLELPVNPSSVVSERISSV
The experiment in a line: [125I]DOI binding to membranes of CHO cells expressing the human 5-HT2C receptor. Particulars: [125I]DOI radioligand, CHO cell membranes, room temperature 60 min; read-out: 5-HT2C Affinity Ki.
As for `NCC1Cc2cccc(-c3ccc(C(F)(F)F)cc3)c2O1` (single isomer, unassigned; (-)) [Example 138, (−)-1-{7-[4-(trifluoromethyl)phenyl]-2,3-dihydro-1-benzofuran-2-yl}methanamine], the Ki is 7.4 nM.

Turning to `NCC1Cc2cc(C(F)(F)F)cc(-c3cccc(C(F)(F)F)c3)c2O1` (racemic) [Example 322, (±)-{[5-(trifluoromethyl)-7-(3-(trifluoromethyl)phenyl)-2,3-dihydro-1-benzofuran-2-yl]methyl}amine], the Ki is 427 nM.

For the compound `CNCC1Cc2cc(-c3ccc(Cl)cc3)cc(F)c2O1` (racemic) [Example 539, (±)-{7-fluoro-5-[4-chlorophenyl]-2,3-dihydro-1-benzofuran-2-yl}methyl)methylamine], the Ki amounted to 209 nM.

On to `NCC1Cc2cccc(-c3ccsc3)c2O1` (single isomer, unassigned; (-)) [Example 46, (−)-1-(7-thien-3-yl-2,3-dihydro-1-benzofuran-2-yl)methanamine], for which the Ki turned out to be 54 nM.

With `NCC1Cc2c(cccc2-c2ccccc2C(F)(F)F)O1` (single isomer, unassigned; (-)) [Example 123, (−)-1-{4-[2-(trifluoromethyl)phenyl]-2,3-dihydro-1-benzofuran-2-yl}methanamine], the Ki stood at 207 nM.

Consider `COc1ccc(-c2cc(F)c3c(c2)CC(CN)O3)cc1` (racemic) [Example 389, (±)-{[7-fluoro-5-(4-methoxyphenyl)-2,3-dihydro-1-benzofuran-2-yl]methyl}amine], for which the Ki is 1620 nM.

In the case of `NCC1Cc2cccc(-c3ccc(F)cc3)c2O1` (single isomer, unassigned; (-)) [Example 75, (−)-1-[7-(4-fluorophenyl)-2,3-dihydro-1-benzofuran-2-yl]methanamine], the Ki came to 103 nM.

As for `COc1cccc(-c2cccc3c2OC(CN)C3)c1OC` (single isomer, unassigned; (+)) [Example 157], the Ki was found to be 58 nM.

Consider `NCC1Cc2cccc(Nc3ccc(Cl)cc3)c2O1` (racemic) [Example 175, (±)-N-[2-(aminomethyl)-2,3-dihydro-1-benzofuran-7-yl]-N-(4-chlorophenyl)amine], for which the Ki amounted to 384 nM.

Take `NCC1Cc2cccc(-c3cccc(C(F)(F)F)c3)c2O1` (racemic) [Example 69, (±)-1-{7-[3-(trifluoromethyl)phenyl]-2,3-dihydro-1-benzofuran-2-yl}methanamine]: the Ki worked out at 96 nM.

Consider `Cc1ccccc1-c1cc(-c2ccccc2)cc2c1OC(CN)C2` (racemic) [Example 351, (±)-{[7-(2-methylphenyl)-5-phenyl-2,3-dihydro-1-benzofuran-2-yl]methyl}amine], for which the inhibitory constant (Ki) was 87 nM.

Consider `Cc1ccc(Nc2cccc3c2OC(CN)C3)cc1` (racemic) [Example 174, (±)-N-[2-(aminomethyl)-2,3-dihydro-1-benzofuran-7-yl]-N-(4-methylphenyl)amine], for which the inhibition constant Ki was determined as 203 nM.

As to `NCC1Cc2cc(-c3cccc(F)c3)cc(F)c2O1` (racemic) [Example 381, (±)-{[7-fluoro-5-(3-fluorophenyl)-2,3-dihydro-1-benzofuran-2-yl]methyl}amine], the Ki came out at 923 nM.

For the compound `Cc1cccc(-c2cc(C(F)(F)F)cc3c2OC(CN)C3)c1C` (racemic) [Example 328, (±)-{[7-(2,3-dimethylphenyl)-5-(trifluoromethyl)-2,3-dihydro-1-benzofuran-2-yl]methyl}amine], the Ki was determined as 61 nM.

In the case of `CNCC1Cc2cc(C(F)(F)F)cc(-c3cccc(F)c3F)c2O1` (racemic) [Example 521, (±)-N-methyl-1-[7-(2,3-difluorophenyl)-5-(trifluoromethyl)-2,3-dihydro-1-benzofuran-2-yl]methanamine], the Ki was 246 nM.

On to `NCC1Cc2cc(-c3ccccc3C(F)(F)F)cc(F)c2O1` (racemic) [Example 378, (±)-({7-fluoro-5-[2-(trifluoromethyl)phenyl]-2,3-dihydro-1-benzofuran-2-yl}methyl)amine], for which the Ki came to 201 nM.

Take `NCC1Cc2cc(Cl)cc(-c3ccsc3)c2O1` (racemic) [Example 90, (±)-(5-chloro-7-thien-3-yl-2,3-dihydro-1-benzofuran-2-yl)methylamine]: the Ki was found to be 8 nM.

Turning to `CNCC1Cc2cc(-c3ccccc3)cc(-c3cccc(OC)c3)c2O1` (racemic) [Example 515, (±)-{[7-(3-methoxyphenyl)-5-phenyl-2,3-dihydro-1-benzofuran-2-yl]methyl}methylamine], the inhibition constant Ki is 965 nM.

With `COc1ccc(-c2cccc3c2OC(CN)C3)c(OC)c1` (single isomer, unassigned; (+)) [Example 145, (+)-1-[7-(2,4-dimethoxyphenyl)-2,3-dihydro-1-benzofuran-2-yl]methanamine], the Ki amounted to 91 nM.

Turning to `Cc1ccccc1-c1c(F)ccc2c1OC(CN)C2` (single isomer, unassigned; (-)) [Example 397, (−)-{[6-fluoro-7-(2-methylphenyl)-2,3-dihydro-1-benzofuran-2-yl]methyl}amine], the Ki was 1.6 nM.

In the case of `NCC1Cc2cccc(Nc3ccc(F)c(Cl)c3)c2O1` (racemic) [Example 193, (±)-N-[2-(aminomethyl)-2,3-dihydro-1-benzofuran-7-yl]-N-(3-chloro-4-fluorophenyl)amine], the Ki amounted to 246 nM.

With `NCC1Cc2cc(Cl)cc(-c3ccsc3)c2O1` (single isomer, unassigned; (+)) [Example 92, (+)-(5-chloro-7-thien-3-yl-2,3-dihydro-1-benzofuran-2-yl)methylamine], the Ki is 62 nM.

Consider `Cc1ccccc1-c1cc(F)c2c(c1)CC(CN)O2` (racemic) [Example 375, (±)-{[7-fluoro-5-(2-methylphenyl)-2,3-dihydro-1-benzofuran-2-yl]methyl}amine], for which the Ki amounted to 71 nM.

Consider `NCC1Cc2cc(-c3ccc(C(F)(F)F)cc3)cc(F)c2O1` (racemic) [Example 388, (±)-({7-fluoro-5-[4-(trifluoromethyl)phenyl]-2,3-dihydro-1-benzofuran-2-yl}methyl)amine], for which the Ki amounted to 1580 nM.

Regarding `NCC1Cc2cc(-c3ccc(F)cc3)cc(F)c2O1` (racemic) [Example 387, (±)-{[7-fluoro-5-(4-fluorophenyl)-2,3-dihydro-1-benzofuran-2-yl]methyl}amine], the Ki was 1550 nM.

Take `CC(C)(C)CCc1cccc2c1OC(CN)C2` (racemic) [Example 118, (±)-1-[7-(3,3-dimethylbutyl)-2,3-dihydro-1-benzofuran-2-yl]methanamine]: the inhibition constant Ki is 319 nM.

Turning to `CNCC1Cc2cc(-c3ccccc3)cc(-c3ccc(F)cc3F)c2O1` (racemic) [Example 517, (±)-{[7-(2,4-difluorophenyl)-5-phenyl-2,3-dihydro-1-benzofuran-2-yl]methyl}methylamine], the Ki stood at 2140 nM.

With `NCC1Cc2cc(-c3ccccc3Cl)cc(F)c2O1` (racemic) [Example 376, (±)-{[7-fluoro-5-(2-chlorophenyl)-2,3-dihydro-1-benzofuran-2-yl]methyl}amine], the inhibitory constant (Ki) is 88 nM.

A further assay deals with T2, human 5-HT2C receptor (Homo sapiens, UniProt P28335).
T2 sequence (P28335 33-458): T1 sequence (P28335 33-458)
The assay can be described thus: 5-HT2C receptor-stimulated calcium mobilization (FLIPR) in CHO cells.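 Also: Fluo-3-AM fluorescence read on FLIPR every 1 s, agonist added after 10 baseline reads, response taken as peak minus lowest raw fluorescence count.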 Format: cell-based. Particulars: calcium mobilization, CHO cells stably expressing human 5-HT2C; read-out: 5-HT2C Function EC50.
`NCC1Cc2cccc(-c3ccc(C(F)(F)F)cc3)c2O1` (single isomer, unassigned; (-)) [Example 138, (−)-1-{7-[4-(trifluoromethyl)phenyl]-2,3-dihydro-1-benzofuran-2-yl}methanamine]: the EC50 was determined as 3800 nM.

The assay is the same for the next values; noted with them: percentage of the response observed with a maximally effective concentration of 5-HT.
On to `NCC1Cc2cccc(-c3ccc(C(F)(F)F)cc3)c2O1` (single isomer, unassigned; (-)) [Example 138, (−)-1-{7-[4-(trifluoromethyl)phenyl]-2,3-dihydro-1-benzofuran-2-yl}methanamine], for which the “5-HT2C Function Emax (%)” value stood at 60%.

Broadly, the Ki is a dissociation constant, usually derived from enzyme kinetics or from competition with a known ligand. As a reminder, the EC50 is the concentration at which the effect is half-maximal.

For the origin of these results see patent US7435837B2, “Dihydrobenzofuranyl alkanamine derivatives and methods for using same” (Wyeth, priority 2003, dated 2008).
